Reference: US20060040861A1, “Method of treating, preventing, and diagnosing prostate cancer” (priority 2004, published 2006)

B1: f-adiponectin: Recombinant human full-length (non-proteolytic) adiponectin, about 30-kDa polypeptide; lot mainly HMW form (protein, UniProt Q15848 1-244, looked up)
chain: MLLLGAVLLLLALPGHDQETTTQGPGVLLPLPKGACTGWMAGIPGHPGHNGAPGRDGRDGTPGEKGEKGDPGLIGPKGDIGETGVPGAEGPRGFPGIQGRKGEPGEGAYVYRSAFSVGLETYVTIPNMPIRFTKIFYNQQNHYDGSTGKFHCNIPGLYYFAYHITVYMKDVKVSLFKKDKAMLFTYDQYQENNVDQASGSVLLHLEVGDQVWLQVYGEGERNGLYADNDNDSTFTGFLLYHDTN
modifications: full-length
notes: Recombinant human full-length (non-proteolytic) adiponectin, about 30-kDa polypeptide; lot mainly HMW form

Legend:
[1] = test system: LNCaP-FGC cells; experiment: [3H] thymidine incorporation assay; format: cell-based, human
Method: DU145 (1.5×10^5/well), PC-3 (1.0×10^5/well) and LNCaP-FGC (2.0×10^5/well) cells were seeded into 24-well plates 24 hours before serum-starvation. Cells were deprived of serum for 48 hours, followed by incubation with leptin at indicated concentrations or 100 ng/ml IL-6 for 20 hours. In some experiments, cells were pretreated with SP600125 prior to cytokine stimulation as described below. Cells in each well were pulsed with 1 μCi of [^3H] thymidine (Amersham Pharmacia Biotech Inc., Piscataway, N.J., USA) during the final 5 hours, washed once with PBS, fixed with cold 5% trichloroacetic acid, solubilized with 0.25 M NaOH, and counted in scintillant. Each experiment was performed in quadruplicate, and the values are reported as mean±SD.

[2] = test system: JNK; experiment: In vitro JNK assay on lysates of treated human cancer cells; format: cell-based
Method: (§1) Eighty-percent confluent prostate cancer cells were starved in the serum-free medium for 24 hours and then treated by 12.5 μg/ml leptin or 10 μg/ml anisomycin for the indicated periods. In some experiments, cells were pretreated with SP600125 prior to cytokine stimulation as described below. Cells were washed twice with cold PBS, harvested by a scraper and centrifuged for 10 minutes at 700×g at 4° C. The pellet was homogenized in the cell lysis buffer (20 mM HEPES, pH 7.9, 300 mM NaCl, 1 mM EDTA, 15% glycerol, 0.5% NP-40, 1 mM Na3VO4, 1 μg/ml leupeptin, 5 μg/ml aprotinin, 1 μg/ml pepstatin and 1 mM PMSF) and incubated at 4° C. with gentle rocking for 30 minutes. This homogenate was centrifuged for 5 minutes at 15,000×g, and the supernatant was saved as a cell lysate and stored at −80° C. until use.
JNK activity was measured using the SAPK/JNK Assay Kit (Cell Signaling Technology Inc.) according to the manufacture's instructions. Briefly, JNK was precipitated in 250 μl of cell lysates (250 μg protein) with 2 μg of glutathione Sepharose beads immobilized by a recombinant fusion protein of the c-Jun N-terminus (1-89) and glutathione S-transferase as a JNK substrate. After being washed with the cell lysis buffer 3 times, the precipitates were incubated in 50 μl of the kinase buffer containing 100 μM ATP at 30° C. for 30 minutes. The reaction was stopped by addition of the SDS sample buffer. The N-terminal c-Jun (1-89) fusion protein was separated by SDS-polyacrylamide gel electrophoresis, and its phoshporylation was determined by Western blot analysis using anti-phospho-c-Jun (Ser-63) polyclonal antibody as described above. JNK protein levels in cell lysates were also measured by Western blot analysis using anti-JNK antibody to normalize sample variations.
(§2) Seventy-percent confluent cells were deprived of serum for 24 hours, followed by treatment with 1 μg/ml f- or g-adiponectin or 10 μg/ml anisomycin for indicated periods. After being rinsed with cold phosphate-buffered saline, cells were harvested using a scraper and collected by centrifugation at 700×g for 10 minutes at 4° C. The cell pellets were then homogenized in cell lysis buffer (20 mM HEPES, pH 7.9, 300 mM NaCl, 1 mM Na3VO4, 1 μg/ml leupeptin, 5 μg/ml aprotinin, 1 μg/ml pepstatin, and 1 mM phenylmethylsulfonyl fluoride) and rocked gently for 30 minutes at 4° C. The homogenates were centrifuged at 15,000×g for 5 minutes at 4° C., and the supernatants were saved as cell lysates and stored at −80° C. until use.
Using the stress-activated protein kinase/JNK assay kit, JNK activity was assessed with a fusion protein of the c-Jun NH2 terminus (amino acids 1 to 89) and glutathione S-transferase as a substrate according to the manufacture's instructions with some modifications as reported before (M. Onuma, et al., supra, 2003). Briefly, JNK was precipitated in cell lysates (250-500 μg of protein) with 2 μg of glutathione-Sepharose beads immobilized by the fusion protein. The precipitates were rinsed with the cell lysis buffer three times, followed by incubation in 50 μl of the kinase buffer containing 100 μM ATP at 30° C. for 30 minutes. The reaction was terminated by adding the SDS sample buffer. The substrate fusion protein was separated by SDS-polyacrylamide gel electrophoresis, and its phosphorylation by JNK was determined by Western blot analysis using anti-phospho-c-Jun (Ser-63) polyclonal antibody. To normalize sample variations, JNK protein levels were also determined by Western blot analysis using anti-JNK antibody.

[3] = test system: c-Jun; experiment: Western blot analysis of c-Jun phosphorylation in human cancer cells; format: cell-based
Method: as §1
Cell lysates containing 100 μg of protein were electrophoresed on 10% SDS-polyacrylamide gels and electrotransferred to PVDF membranes. Following the supplier's instructions, the membranes were washed, blocked and hybridized with anti-phospho-c-Jun (Ser-63 or Ser-73) polyclonal antibody that specifically recognizes a phosphorylated form of c-Jun. Bands were visualized using a Lumiglo reagent (Cell Signaling Technology Inc.). The membranes were then stripped and re-hybridized with anti-c-Jun antibody that detects both phosphorylated and unphosphorylated forms to normalize sample variations.
SP600125 was dissolved in DMSO to make a stock solution. Eighty-percent confluent prostate cancer cells were serum-starved for 24 hours and pretreated with SP600125 at indicated concentrations for 30 minutes, followed by leptin treatment (12.5 μg/ml): 15 minutes for Western blot analysis or 20 hours for thymidine incorporation assays. DMSO-treated cells were employed as controls.
as §2
Cell lysates (100 μg of protein) were electrophoresed on 10% SDS-polyacrylamide gels and transferred to polyvinylidene difluoride membranes. […]

[4] = test system: LNCaP-FGC cells; experiment: Cell proliferation with leptin and DHT; format: cell-based, human; details: only in the presence of DHT
[5] = test system: c-Jun; experiment: Western blot analysis of c-Jun phosphorylation in C2C12 myoblasts; format: cell-based, murine; details: 1.0 μg/ml
Method: as §2
Cell lysates (100 μg of protein) were electrophoresed on 10% SDS-polyacrylamide gels and transferred to polyvinylidene difluoride membranes. After being washed and blocked, the membranes were hybridized with anti-phospho-c-Jun (Ser-63 or Ser-73) polyclonal antibody that specifically detects phosphorylated c-Jun molecules. The membranes were then stripped and re-hybridized with anti-c-Jun antibody that recognizes both phosphorylated and unphosphorylated c-Jun molecules to normalize sample variations.

[6] = test system: STAT3; experiment: Electromobility shift assay (EMSA) of STAT3 DNA binding; format: cell-based, human
Method: as §2
The EMSA was performed as described previously (Y. Iwamoto, et al., J. Biol. Chem. 273:18198-18204, 1998). Cell lysates containing 10 μg of protein were subjected to the assay with ^32P-end-labeled, double-stranded oligonucleotide M67-SIE (forward: 5′[…]-3′ and reverse: 5′-[…]-3′) as a probe. The supershift assay was carried out to confirm the STAT3-DNA complex using anti-STAT3 antibody.

[7] = DU145, PC-3, LNCaP-FGC and HepG2 cells, 1.0 μg/ml

| Molecule | cell proliferation on co-treatment with leptin and IGF-I ([1]; 12.5 μg/ml leptin with 100 ng/ml IGF-I, 20 hours) | effect on the IL-6-induced inhibition of cell proliferation ([1]; 12.5 μg/ml leptin with 100 ng/ml IL-6, 20 hours) | [3H] thymidine incorporation (cell proliferation), cytokine alone ([1]; serum-deprived, leptin up to 12.5 μg/ml, IL-6 100 ng/ml or IGF-I 100 ng/ml, 20 hours) | time of peak JNK activation after addition ([2]; DU145, 12.5 μg/ml leptin) | time of return of JNK activation to the basal level ([2]; DU145, 12.5 μg/ml leptin) | JNK activity ([2]; DU145, 12.5 μg/ml leptin, up to 60 minutes) | JNK activity ([2]; LNCaP-FGC, 12.5 μg/ml leptin, up to 60 minutes) | time of peak JNK activation after addition ([2]; PC-3, 12.5 μg/ml leptin) | JNK activity ([2]; PC-3, 12.5 μg/ml leptin, up to 60 minutes) | c-Jun phosphorylation on Ser-63 and Ser-73 ([3]; DU145 and PC-3 cells, 12.5 μg/ml leptin) | cell proliferation, leptin together with androgen (DHT) [4] | time of peak JNK activation after addition [2, 7] | JNK activation ([2]; DU145, PC-3, LNCaP-FGC and HepG2 cells, 1.0 μg/ml, up to 60 minutes) | c-Jun phosphorylation at Ser-63 [3, 7] | c-Jun phosphorylation at Ser-73 ([3]; DU145, PC-3 and HepG2 cells, 1.0 μg/ml) | c-Jun phosphorylation at Ser-73 ([3]; LNCaP-FGC cells, 1.0 μg/ml) | c-Jun phosphorylation at Ser-63 [5] | c-Jun phosphorylation at Ser-73 [5] | constitutive STAT3 activation (STAT3 DNA binding activity) ([6]; DU145 and HepG2 cells, 1.0 μg/ml, up to 60 minutes) | STAT3 activation ([6]; the other cell lines (PC-3, LNCaP-FGC, C2C12), data not shown) |
| --- | --- | --- | --- | --- | --- | --- | --- | --- | --- | --- | --- | --- | --- | --- | --- | --- | --- | --- | --- | --- |
| leptin: Recombinant human leptin purchased from R&D Systems; major adipose cytokine | did not influence | did not influence | did not influence | 15 min | 45 min | stimulated JNK activity | did not influence JNK activity | 15 min | stimulated JNK activity | stimulated c-Jun phosphorylation | synergistically stimulate cell proliferation |  |  |  |  |  |  |  |  |  |
| B1 |  |  |  |  |  |  |  |  |  |  |  | 10 min | further stimulated JNK activation | augmented c-Jun phosphorylation at Ser-63 | stimulated Ser-73 phosphorylation | quite modest | augmented c-Jun phosphorylation at Ser-63 | stimulated Ser-73 phosphorylation | inhibited constitutive STAT3 activation drastically | Neither f- nor g-adiponectin influenced STAT3 activation |
